Assay [1] concerns Pseudomonas aeruginosa. The assay can be described thus: Antimicrobial activity against Pseudomonas aeruginosa 166301 expressing beta-lactamase VIM-16 obtained from urine of patient by agar dilution method. Type of assay: functional.
Assay [2] has as its system Escherichia coli. The assay can be described thus: Antimicrobial activity against Escherichia coli DH5alpha harboring beta-lactamase VIM-15 by agar dilution method. Format: functional. The note with it: DH5[alpha].
The test system of assay [3] is Escherichia coli. The experiment in a line: Antimicrobial activity against Escherichia coli DH5alpha harboring beta-lactamase VIM-16 by agar dilution method. The note with it: DH5[alpha]. Format: functional.
For assay [4], the system named is Escherichia coli. The assay can be described thus: Antimicrobial activity against Escherichia coli DH5alpha harboring beta-lactamase VIM-2 by agar dilution method. Type of assay: functional. The note with it: DH5[alpha].
Assay [5] has as its system Escherichia coli. The assay can be described thus: Antimicrobial activity against Escherichia coli DH5alpha by agar dilution method. Format: functional. The note with it: DH5[alpha].
Assay [6] deals with Pseudomonas aeruginosa. The assay can be described thus: Activity of Pseudomonas aeruginosa 9551 beta-lactamase VIM-15.
Assay [7] has as its system Pseudomonas aeruginosa. The assay can be described thus: Ratio of Kcat to Km for Pseudomonas aeruginosa 9551 beta-lactamase VIM-15.
Assay [8] concerns Pseudomonas aeruginosa. The assay can be described thus: Activity of Pseudomonas aeruginosa 166301 beta-lactamase VIM-16.
Assay [9] concerns Pseudomonas aeruginosa. The experiment in a line: Ratio of Kcat to Km for Pseudomonas aeruginosa 166301 beta-lactamase VIM-16.
Assay [10] has as its system Pseudomonas aeruginosa. The experiment in a line: Activity of Pseudomonas aeruginosa 9551 beta-lactamase VIM-15 relative to cephaloridine.
For assay [11], the system named is Pseudomonas aeruginosa. The experiment in a line: Activity of Pseudomonas aeruginosa 166301 beta-lactamase VIM-16 relative to cephaloridine.
Assay [12] concerns Pseudomonas aeruginosa. The experiment in a line: Ratio of Kcat to Km for Pseudomonas aeruginosa 166301 beta-lactamase VIM-16 relative to cephaloridine.
For assay [13], the system named is Pseudomonas aeruginosa. The assay can be described thus: microbe, parasite or virus in culture. The note with it: Pseudomonas aeruginosa, 9551, Urine.
The subject of assay [14] is Pseudomonas aeruginosa. The experiment in a line: Ratio of Kcat to Km for Pseudomonas aeruginosa 9551 beta-lactamase VIM-15 relative to cephaloridine.
Assay [15] deals with Beta-lactamase VIM-2 (Pseudomonas aeruginosa) (UniProt Q9K2N0). The experiment in a line: Activity of Pseudomonas aeruginosa COL-1 beta-lactamase VIM-2 relative to cephaloridine.
The target is the same in assay [16]. The experiment in a line: Ratio of Kcat to Km for Pseudomonas aeruginosa COL-1 beta-lactamase VIM-2 relative to cephaloridine.
For assay [17], the system named is Pseudomonas aeruginosa. The assay can be described thus: Antimicrobial activity against Pseudomonas aeruginosa 9551 expressing beta-lactamase VIM-15 obtained from urine of patient by agar dilution method in presence of beta-lactamase inhibitor Tazobactam. The note with it: Pseudomonas aeruginosa, 9551, Urine. Type of assay: functional.
Assay [18] concerns Pseudomonas aeruginosa. The experiment in a line: Antimicrobial activity against Pseudomonas aeruginosa 166301 expressing beta-lactamase VIM-16 obtained from urine of patient by agar dilution method in presence of beta-lactamase inhibitor Tazobactam. Format: functional. The note with it: Pseudomonas aeruginosa, 166301, Urine.
Assay [19] relates to Escherichia coli. The assay can be described thus: Antimicrobial activity against Escherichia coli DH5alpha harboring beta-lactamase VIM-15 by agar dilution method in presence of beta-lactamase inhibitor Tazobactam. Format: functional. The note with it: DH5[alpha].
For assay [20], the system named is Escherichia coli. The assay can be described thus: Antimicrobial activity against Escherichia coli DH5alpha harboring beta-lactamase VIM-16 by agar dilution method in presence of beta-lactamase inhibitor Tazobactam. Format: functional. The note with it: DH5[alpha].
Assay [21] relates to Escherichia coli. The assay can be described thus: Antimicrobial activity against Escherichia coli DH5alpha harboring beta-lactamase VIM-2 by agar dilution method in presence of beta-lactamase inhibitor Tazobactam. Format: functional. The note with it: DH5[alpha].
Assay [22] concerns Escherichia coli. The assay can be described thus: Antimicrobial activity against Escherichia coli DH5alpha by agar dilution method in presence of beta-lactamase inhibitor Tazobactam. Format: functional. The note with it: DH5[alpha].
Setting [23] is: Pseudomonas aeruginosa, 166301, Urine.

≈ marks a conversion by molar mass, not a printed value.

Turning to `CO/N=C(\C(=O)N[C@@H]1C(=O)N2C(C(=O)[O-])=C(C[N+]3(C)CCCC3)CS[C@H]12)c1csc(N)n1`, the MIC in the assay with Pseudomonas aeruginosa [1] (setting [23]) stood at 32 µg/mL (≈ 66.6 µM); against Escherichia coli [2], 0.03 µg/mL (≈ 0.0624 µM); with Escherichia coli [3], 0.03 µg/mL (≈ 0.0624 µM); in the assay on Escherichia coli [4], 0.03 µg/mL (≈ 0.0624 µM); with Escherichia coli [5], 0.016 µg/mL (≈ 0.0333 µM); with Pseudomonas aeruginosa [13] it was 32 µg/mL (≈ 66.6 µM). Further, the Km in the assay on Pseudomonas aeruginosa [6] is 130 µM; with Pseudomonas aeruginosa [8] it was 210 µM. The results for the kcat in the assay on Pseudomonas aeruginosa [6] and in the assay with Pseudomonas aeruginosa [8] were 9.5 s⁻¹ and 0.31 s⁻¹, respectively. Also, the kcat/Km turned out to be 0.076 s⁻¹ µM⁻¹ in the assay with Pseudomonas aeruginosa [7] and 0.0015 s⁻¹ µM⁻¹ with Pseudomonas aeruginosa [9]. For the same molecule, the values for the Activity in the assay with Pseudomonas aeruginosa [10], in the assay with Pseudomonas aeruginosa [11] and in the assay on Pseudomonas aeruginosa [12] were 5%, 0.35% and 2.3%, respectively.

With `CC1(C)S[C@@H]2[C@H](NC(=O)Cc3ccccc3)C(=O)N2[C@H]1C(=O)O`, the Activity in the assay with Pseudomonas aeruginosa [12] is 800%.

Regarding `O=C(Cc1cccs1)N[C@@H]1C(=O)N2C(C(=O)[O-])=C(C[n+]3ccccc3)CS[C@H]12`, the Km stood at 83 µM in the assay on Pseudomonas aeruginosa [6] and 1400 µM with Pseudomonas aeruginosa [8]. Also, the kcat in the assay with Pseudomonas aeruginosa [6] came out at 190 s⁻¹; in the assay with Pseudomonas aeruginosa [8] it was 89 s⁻¹. Moreover, the kcat/Km came to 2.3 s⁻¹ µM⁻¹ with Pseudomonas aeruginosa [7] and 0.064 s⁻¹ µM⁻¹ in the assay on Pseudomonas aeruginosa [9]. For the same molecule, the Activity (with Pseudomonas aeruginosa [10]; in the assay with Pseudomonas aeruginosa [14]; in the assay with Pseudomonas aeruginosa [11]; in the assay with Pseudomonas aeruginosa [12]; in [15]; in assay [16]) was 100% each time.

In the case of `CC1(C)S[C@@H]2[C@H](NC(=O)[C@H](N)c3ccc(O)cc3)C(=O)N2[C@H]1C(=O)O` [AMOXICILLIN], the MIC against Pseudomonas aeruginosa [1] (setting [23]) is more than 512 µg/mL; against Escherichia coli [2], 256 µg/mL (≈ 701 µM); with Escherichia coli [3], 256 µg/mL (≈ 701 µM); with Escherichia coli [4], 256 µg/mL (≈ 701 µM); with Escherichia coli [5], 4 µg/mL (≈ 10.9 µM); in the assay with Pseudomonas aeruginosa [13], 512 µg/mL (≈ 1400 µM).

Take `C[C@H]1[C@H](NC(=O)/C(=N\OC(C)(C)C(=O)O)c2csc(N)n2)C(=O)N1S(=O)(=O)O` [AZTREONAM]: the MIC is 32 µg/mL (≈ 73.5 µM) with Pseudomonas aeruginosa [1] (setting [23]); 0.016 µg/mL (≈ 0.0367 µM) against Escherichia coli [2]; 0.016 µg/mL (≈ 0.0367 µM) in the assay with Escherichia coli [3]; 0.016 µg/mL (≈ 0.0367 µM) against Escherichia coli [4]; 0.016 µg/mL (≈ 0.0367 µM) with Escherichia coli [5]; 16 µg/mL (≈ 36.7 µM) with Pseudomonas aeruginosa [13]. Besides, the kcat in the assay with Pseudomonas aeruginosa [6] is less than 0.031 s⁻¹; with Pseudomonas aeruginosa [8] it was less than 0.11 s⁻¹. Besides, the Activity is less than 0.016% with Pseudomonas aeruginosa [10] and less than 0.12% with Pseudomonas aeruginosa [11].

Take `CO/N=C(\C(=O)N[C@@H]1C(=O)N2C(C(=O)O)=C(COC(C)=O)CS[C@H]12)c1csc(N)n1` [CEFOTAXIME]: the MIC with Pseudomonas aeruginosa [1] (setting [23]) was more than 256 µg/mL; in the assay with Escherichia coli [2], 4 µg/mL (≈ 8.78 µM); in the assay with Escherichia coli [3], 2 µg/mL (≈ 4.39 µM); in the assay on Escherichia coli [4] it was 1 µg/mL (≈ 2.2 µM); with Escherichia coli [5] it was 0.03 µg/mL (≈ 0.0659 µM); in the assay with Pseudomonas aeruginosa [13], more than 256 µg/mL. Also, the figures for the Michaelis-Menten constant (Km) in the assay on Pseudomonas aeruginosa [6] and in the assay with Pseudomonas aeruginosa [8] were 13 µM and 240 µM, respectively. For the same molecule, the kcat worked out at 90 s⁻¹ with Pseudomonas aeruginosa [6] and 81 s⁻¹ in the assay with Pseudomonas aeruginosa [8]. Moreover, the values for the kcat/Km with Pseudomonas aeruginosa [7] and with Pseudomonas aeruginosa [9] were 6.9 s⁻¹ µM⁻¹ and 0.34 s⁻¹ µM⁻¹, respectively. Further, the Activity in the assay on Pseudomonas aeruginosa [10] was found to be 47%; with Pseudomonas aeruginosa [14], 300%; with Pseudomonas aeruginosa [11], 91%; in the assay on Pseudomonas aeruginosa [12], 530%.

On to `CC(C)(O/N=C(\C(=O)N[C@@H]1C(=O)N2C(C(=O)[O-])=C(C[n+]3ccccc3)CS[C@H]12)c1csc(N)n1)C(=O)O` [CEFTAZIDIME], for which the MIC is 64 µg/mL (≈ 117 µM) in the assay with Pseudomonas aeruginosa [1] (setting [23]); 0.5 µg/mL (≈ 0.915 µM) against Escherichia coli [2]; 0.5 µg/mL (≈ 0.915 µM) with Escherichia coli [3]; 1 µg/mL (≈ 1.83 µM) against Escherichia coli [4]; 0.13 µg/mL (≈ 0.238 µM) against Escherichia coli [5]; 64 µg/mL (≈ 117 µM) against Pseudomonas aeruginosa [13]. Moreover, the Km in the assay on Pseudomonas aeruginosa [6] worked out at 37 µM; in the assay with Pseudomonas aeruginosa [8], 150 µM. Also, the values for the kcat in the assay on Pseudomonas aeruginosa [6] and with Pseudomonas aeruginosa [8] were 1 s⁻¹ and 0.22 s⁻¹, respectively. In addition, the results for the kcat/Km in the assay with Pseudomonas aeruginosa [7] and in the assay with Pseudomonas aeruginosa [9] were 0.027 s⁻¹ µM⁻¹ and 0.0014 s⁻¹ µM⁻¹, respectively. Also, the Activity with Pseudomonas aeruginosa [10] came to 0.53%; with Pseudomonas aeruginosa [14], 1.2%; in the assay with Pseudomonas aeruginosa [11], 0.25%; with Pseudomonas aeruginosa [12], 2.2%.

`C[C@@H](O)[C@H]1C(=O)N2C(C(=O)O)=C(SCCNC=N)C[C@H]12` [IMIPENEM ANHYDROUS]: the MIC against Pseudomonas aeruginosa [1] (setting [23]) is more than 128 µg/mL; in the assay on Escherichia coli [2], 0.5 µg/mL (≈ 1.67 µM); against Pseudomonas aeruginosa [13], more than 128 µg/mL. For the same molecule, the values for the Km with Pseudomonas aeruginosa [6] and in the assay on Pseudomonas aeruginosa [8] were 7.3 µM and 89 µM, respectively. In addition, the kcat in the assay on Pseudomonas aeruginosa [6] came to 61 s⁻¹; with Pseudomonas aeruginosa [8] it was 45 s⁻¹. In addition, the kcat/Km in the assay on Pseudomonas aeruginosa [7] was determined as 8.4 s⁻¹ µM⁻¹; in the assay on Pseudomonas aeruginosa [9], 0.51 s⁻¹ µM⁻¹. Also, the Activity turned out to be 32% in the assay on Pseudomonas aeruginosa [10]; 370% in the assay with Pseudomonas aeruginosa [14]; 51% with Pseudomonas aeruginosa [11]; 800% in the assay with Pseudomonas aeruginosa [12]; 17% in [15]; 380% in assay [16].

For the molecule `C[C@@H](O)[C@H]1C(=O)N2C(C(=O)O)=C(S[C@@H]3CN[C@H](C(=O)N(C)C)C3)[C@H](C)[C@H]12` [MEROPENEM], the MIC against Pseudomonas aeruginosa [1] (setting [23]) is more than 128 µg/mL; against Escherichia coli [2], 0.03 µg/mL (≈ 0.0782 µM); against Escherichia coli [3], 0.03 µg/mL (≈ 0.0782 µM); in the assay with Escherichia coli [4], 0.03 µg/mL (≈ 0.0782 µM); in the assay on Escherichia coli [5], 0.016 µg/mL (≈ 0.0417 µM); with Pseudomonas aeruginosa [13], 128 µg/mL (≈ 334 µM). The Activity came out at 110% in the assay with Pseudomonas aeruginosa [12], 1.8% in [15] and 62% in assay [16].

Turning to `CCN1CCN(C(=O)N[C@@H](C(=O)N[C@@H]2C(=O)N3[C@@H]2SC(C)(C)[C@@H]3C(=O)O)c2ccccc2)C(=O)C1=O` [PIPERACILLIN], the MIC is 128 µg/mL with Pseudomonas aeruginosa [17]; 128 µg/mL in the assay on Pseudomonas aeruginosa [18]; 8 µg/mL in the assay with Escherichia coli [19]; 8 µg/mL in the assay with Escherichia coli [20]; 4 µg/mL with Escherichia coli [21]; 1 µg/mL in the assay on Escherichia coli [22].

With `NC[C@H]1O[C@H](O[C@H]2[C@H](O)[C@@H](O[C@H]3O[C@H](CO)[C@@H](O)[C@H](N)[C@H]3O)[C@H](N)C[C@@H]2N)[C@H](N)C[C@@H]1O` [TOBRAMYCIN], the MIC is more than 128 µg/mL against Pseudomonas aeruginosa [1] (setting [23]); 0.25 µg/mL (≈ 0.535 µM) in the assay on Escherichia coli [2]; 0.25 µg/mL (≈ 0.535 µM) in the assay with Escherichia coli [3]; 0.25 µg/mL (≈ 0.535 µM) against Escherichia coli [4]; 0.25 µg/mL (≈ 0.535 µM) against Escherichia coli [5]; 8 µg/mL (≈ 17.1 µM) in the assay with Pseudomonas aeruginosa [13].

On to GENTAMICIN, for which the MIC in the assay with Pseudomonas aeruginosa [1] is more than 128 µg/mL; with Escherichia coli [2], 0.13 µg/mL; with Escherichia coli [3], 0.13 µg/mL; against Escherichia coli [4], 0.13 µg/mL; with Escherichia coli [5] it was 0.13 µg/mL.
